# pIC50: −log10 of the molar value.
# Molecular target: Transitional endoplasmic reticulum ATPase (Homo sapiens) (UniProt P55072)
# Test: Inhibition of p97 (unknown origin) expressed in Escherichia coli BL21 (DE3) preincubated for 10 mins followed by ATP addition measured for 30 to 120 mins by malachite green based assay
# Chain of Transitional endoplasmic reticulum ATPase (Homo sapiens) (P55072 whole entry, looked up): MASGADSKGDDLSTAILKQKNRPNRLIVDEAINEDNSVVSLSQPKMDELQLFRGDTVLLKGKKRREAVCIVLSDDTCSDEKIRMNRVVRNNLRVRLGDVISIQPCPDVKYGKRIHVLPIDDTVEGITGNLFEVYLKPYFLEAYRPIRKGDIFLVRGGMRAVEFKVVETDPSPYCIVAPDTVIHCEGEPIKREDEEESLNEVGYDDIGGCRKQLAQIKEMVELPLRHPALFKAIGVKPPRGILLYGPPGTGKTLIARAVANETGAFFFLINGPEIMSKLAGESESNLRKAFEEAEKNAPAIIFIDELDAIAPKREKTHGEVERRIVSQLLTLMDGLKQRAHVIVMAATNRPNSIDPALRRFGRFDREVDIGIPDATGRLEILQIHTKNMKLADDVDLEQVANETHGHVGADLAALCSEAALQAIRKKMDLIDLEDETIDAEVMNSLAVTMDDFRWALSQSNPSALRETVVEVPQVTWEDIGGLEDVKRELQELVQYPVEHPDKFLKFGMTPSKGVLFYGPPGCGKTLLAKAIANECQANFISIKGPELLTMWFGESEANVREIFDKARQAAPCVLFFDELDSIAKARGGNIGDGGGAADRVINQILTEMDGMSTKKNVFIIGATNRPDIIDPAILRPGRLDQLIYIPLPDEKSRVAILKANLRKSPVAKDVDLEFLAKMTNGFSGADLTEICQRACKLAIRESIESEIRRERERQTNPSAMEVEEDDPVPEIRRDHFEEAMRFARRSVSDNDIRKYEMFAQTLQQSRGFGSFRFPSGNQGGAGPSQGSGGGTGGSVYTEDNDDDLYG
smiles,measurement,value
C[C@H]1CCC/C=C/C(=O)c2c(O)cc(O)cc2CC(=O)O1 [DEHYDROCURVULARIN],pIC50,4.82
